Source: patent publication US9918963B2, “Therapeutic agent for disease based on inhibitory effect of macrophage migration inhibitory factor” (TOYAMA CHEMICAL CO., LTD., priority 2013, dated 2018)

What was measured:
[1] = system: chronic relapsing EAE model of mouse; type: in vivo
Experimental: Compound A was selected as a test substance, and salazosulfapyridine (hereinafter referred to as SASP) was selected as a comparative control agent. Compound A was administered at a dose of 30 mg/kg (Compound A group). SASP was administered at a dose of 300 mg/kg (SASP group). In control group and normal group (no induction treatment group), 0.5% methyl cellulose aqueous solution used as vehicle of the administration liquid was administered.
The chronic relapsing EAE was induced in SJL/J female mice by immunization with partial PLP peptide. Briefly, an emulsion was prepared by mixing equivalent volumes of phosphate buffer saline containing 1 mg/mL of the peptide corresponding to residues 139-151 of the PLP and Freund's […] adjuvant containing 4 mg/mL of killed M. Tuberculosis H37Ra. The emulsion was intradermically injected (50 μg of PLP per mouse) into four positions on the back for immunization, and additionally, on the day of the immunization and two days after, pertussis toxin was intraperitoneally injected in each amount of 150 ng per mouse, twice in total. The vehicle, the test substance or the reference article was orally administered continuously for 44 days once daily from the day of the immunization.
In the present experiment, paralysis was developed to reach a peak on the 14th to 16th day after the immunization, and the symptom remitted once, but relapsed to reach a peak on the 38th day.
The symptom was evaluated in accordance with a report of Weaver et al. (FASEB Journal, 2005, vol. 19, p. 1668). Briefly, paralysis of all of the four limbs and the tail was evaluated by scoring in 4 ranks of scores of 0 to 3 and in 3 ranks of scores of 0 to 2, respectively, and the sum of the scores was determined as EAE score (the maximum score 14).
Incidence rates (the number of mice having developed the disease/the number of used mice) and the average of EAE score of each group were measured at the period of initial onset (on the 15th day after the immunization) and at the period of relapse (on the 38th day after the immunization).

MIF = molecular target: T1, MIF (Homo sapiens, UniProt P14174); assay: Inhibition of MIF tautomerase activity (L-dopachrome methyl ester, absorbance at 475 nm); type: biochemical; conditions: 30 μmol/L test substance, 10 to 50 nmol/L MIF, pH 6.2, control = 100%; read-out: Inhibition Rate of Tautomerase Reaction
T1 construct: (catalogue number not given); host or cells: E. coli BL21 Star (DE3)
T1 sequence (P14174 2-115 limits assumed): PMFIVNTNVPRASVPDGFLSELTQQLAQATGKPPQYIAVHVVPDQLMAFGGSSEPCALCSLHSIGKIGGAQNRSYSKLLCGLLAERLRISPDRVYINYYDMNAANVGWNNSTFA
Experimental: The inhibitory effect of test substances against tautomerase activity of MIF was evaluated by referring to a method of Healy et al. (Cancer Epidemiology Biomarkers and Prevention, 2011, vol. 20, pp. 1516-1523).
In this method, tautomeric reaction from L-3,4-dihydroxyphenylalanine methyl ester (L-dopachrome methyl ester, colored) to 5,6-hydroxyindole-2-carboxylic acid methyl ester (no color) is measured as a change in absorbance at 475 nm.
As an enzyme source, recombinant MIF manufactured by Abcam Plc. or MIF produced and purified by referring to a method of Lubetsky et al. (The Journal of Biological Chemistry, 2002, vol. 277, pp. 24976-24982) was used. A purification method for MIF is described below.
The pET15b vector (Merck) into which the full length gene sequence of MIF had been inserted was transfected E. coli BL21 Star (DE3) strain (Life Technologies Corporation). […] The E. coli were resuspended in buffer (pH 7.5) containing 20 mmol/L Tris (Wako Pure Chemical Industries, Ltd.), 20 mmol/L sodium chloride (Wako Pure Chemical Industries, Ltd.) and 1 mmol/L dithiothreitol (Wako Pure Chemical Industries, Ltd.), and the resultant was subjected to ultrasonic lysis and centrifugation at 15000 rpm for 10 minutes. The thus obtained supernatant was filtered using a 0.20 μm filter, and was allowed to pass through HiTrap Q HP and HiTrap SP HP columns (GE Healthcare Japan Corporation), so as to separate flow-through fractions each of 5 mL. Each of 10 μL of the separated fractions was subjected to the electrophoresis using 5 to 20% polyacrylamide gel (Wako Pure Chemical Industries, Ltd.), and all proteins were stained with Coomassie brilliant blue reagent (Bio-Rad Laboratories, Inc.). On the basis of results thus obtained, a fraction containing a large amount of MIF and containing least amount of other proteins was selected as purified MIF. The concentration of MIF protein was measured by using BCA protein assay reagent (Thermo Fisher Scientific K. K.).
Inhibitory effect of each test substance against MIF tautomerase activity was measured as follows.
A final concentration of 10 to 50 nmol/L of MIF and a final concentration of 30 μmol/L of each test substance or 0.5% dimethyl sulfoxide (Wako Pure Chemical Industries, Ltd.) as a control were added to buffer (pH 6.2) containing 50 mmol/L Bis-Tris (Dojindo Laboratories) and 1 mmol/L EDTA (Dojindo Laboratories), and reaction was performed at room temperature for 15 minutes to give a reaction solution 1.
On the other hand, 1/20 volume of 12 mmol/L L-3,4-dihydroxyphenylalanine methyl ester (Sigma Aldrich) and 1/20 volume of 24 mmol/L sodium periodate (Wako Pure Chemical Industries, Ltd.) were added to buffer having the same composition as that used for obtaining the reaction solution 1, to give a reaction solution 2.
Next, the reaction solution 1 and the reaction solution 2 were mixed, and the temporal change of absorbance at 475 nm of the obtained mixture was immediately measured.
The difference of the absorbencies between the at about 1 minute after the measurement start and at about 5 minutes after was obtained. Assuming that the absorbance change of the control is 100%, an inhibiting rate of the tautomerase reaction in presence of=each test substance was calculated.

## CS(=O)(=O)Nc1cc2occ(NC=O)c(=O)c2cc1Oc1ccccc1 [Compound A, N-[7-[(methylsulfonyl)amino]-4-oxo-6-phenoxy-4H-1-benzopyran-3-yl]formamide]
[1]; 15th day after immunization, average, maximum score 14, oral once daily (Compound A 30 mg/kg, SASP 300 mg/kg)
  EAE score, period of initial onset: 1.4
[1]; 15th day after immunization, mice having developed the disease/mice used, oral once daily from immunization (Compound A 30 mg/kg, SASP 300 mg/kg)
  Incidence rate, period of initial onset: 1/8
[1]; 38th day after immunization, average, maximum score 14, oral once daily (Compound A 30 mg/kg, SASP 300 mg/kg)
  EAE score, period of relapse: 0.3
[1]; 38th day after immunization, mice having developed the disease/mice used, oral once daily (Compound A 30 mg/kg, SASP 300 mg/kg)
  Incidence rate, period of relapse: 2/8
[1]; oral once daily for 44 days from immunization (Compound A 30 mg/kg, SASP 300 mg/kg)
  Effect on incidence rate / EAE score, paralysis of chronic relapsing EAE: suppressed the occurrence of paralysis
MIF
  inhibition at 30 µM: 50 to 75%
